Laboratory results published in a melting point compilation (Tetko et al.; mined from patent text by program, amines drawn as free bases though some values may be those of a salt).

Structure (SMILES) | melting point
CCCCC(CNc1ncc(OC)c(C)n1)c1ccccc1 (stereo not given) | 39 to 40 °C
OC(CCN1CCC(c2ccccc2)CC1)c1ccc(Cc2ccc(Cl)cc2)cc1 (stereo not given) | 98 to 101 °C
O=C(O)COc1ccc2c(=O)c3c(Cl)cccc3oc2c1Cl | 270 to 271 °C
Nc1ccnn1-c1c(Cl)cc(C(F)(F)F)cc1Cl | 90 to 94 °C
CCCOc1ncc(C#C[Si](C)(C)C)cc1-c1nc2c(CC)nn(CCN3CCOCC3)c2c(=O)[nH]1 | 132 to 134 °C
CN1CCC(c2c(O)cc(O)c3c(=O)cc(-c4ccccc4Cl)oc23)C1C(=O)O (stereo not given) | 295 to 297 °C
Cc1ccn(-c2ccc(C(=O)N3Cc4cccnc4Nc4ccccc43)c(Cl)c2)n1 | 192 to 193 °C
Cc1cccc(C#Cc2cccc(C#N)c2)n1 | 120 to 123 °C
CCOC(=O)CCC(=O)NCc1ccc([N+](=O)[O-])cc1 | 104 to 106 °C
COc1ccc2c(c1)NC(C)(C)C=C2C | 67 to 69 °C
Nc1cc(CS(=O)(=O)CCO)ccc1CS(=O)(=O)CCO | 196 to 198 °C
COc1cc2nc(N3CCN(C#N)CC3)nc(N)c2cc1OC | 215 °C
CCSC(=O)c1nc(N)ccc1Oc1nc(OC)cc(OC)n1 | 115 to 118 °C
CCS(=O)(=O)Nc1ccc(Cc2ccc(N)cc2)cc1 | 108 to 109 °C
Cc1ccc(-c2cc(N3CCCC3)c(C#N)c3c2-c2ccccc2C3=O)cc1 | 162 to 164 °C
CN1C(=S)Cc2ccccc21 | 108 to 109 °C
O=c1[nH]c(-c2csc3ccccc23)nc2ccc(N3CCCCC3)cc12 | > 300 °C
COc1ccc(C2C3=C(COC3=O)Nc3ccc4nc(S)[nH]c4c32)cc1O (stereo not given) | 334 to 337 °C
COc1ccc(C(=O)CC(O)C(=O)O)cc1OC (stereo not given) | 106 to 108 °C
Nc1ccc(CCc2n[nH]c3c2c(=O)n(-c2ccccc2)c2ncccc32)cc1 | > 310 °C
Cn1ncc2c1-c1c(Oc3ccc(O)cc3)sc(C(N)=O)c1CC2 | 137 to 139 °C
c1ccc(C(c2ccc3nccnc3c2)n2cnnc2)cc1 (stereo not given) | 98.1 °C
Cc1c(CCNC(=S)Nc2nccs2)cccc1C(F)(F)F | 158 to 159 °C
Cn1cc(S(C)(=O)=O)c(=O)c2ccc(Cl)cc21 | 241 to 242 °C
O=C(CC(O)(c1cc(Cl)cc(Cl)c1)C(F)(F)F)c1ccc(-n2cncn2)nc1 (stereo not given) | 135 to 136 °C

Structure (SMILES) | melting point
CC1(COC(=O)c2ccccc2)COC(CBr)(c2ccc(Cl)cc2Cl)OC1 (stereo not given) | 139 to 142 °C
O=C(NCCNC(=O)C1CCNC1)OCc1ccccc1 (stereo not given) | 129 to 131 °C
CS(=O)(=O)c1ccc(-c2cnn(CC(F)(F)F)c(=O)c2Nc2ccc(F)cc2F)cc1 | 170 to 175 °C
Clc1ccc(OC2CC3CCC(C2)N3Cc2nccs2)cc1Cl (stereo not given) | 123 to 124 °C
CC1=CC(=O)C(C)=C(CCC(C)(C)COc2ccc(CC3SC(=O)NC3=O)cc2)C1=O (stereo not given) | 173 °C
C#CC(C)(C)Oc1ccc(-c2ccnc(C)c2)cc1 | 37 to 40 °C
O=c1c2ccccc2oc2c(C3CCCCC3)cccc12 | 122 to 124 °C
CCCCOCCOc1ccc(-c2ccc3c(c2)C=C(C(=O)Nc2ccc(S(=O)Cc4nccn4CC(=O)O)cc2)CCN3CC(C)C)cc1 (stereo not given) | 146 to 148 °C
COc1ccc2nc(-c3ccc([N+](=O)[O-])cc3)sc2c1 | 216 to 217 °C
OC(c1cscn1)(c1cscn1)C(F)(F)F | 87 to 89 °C
CNC(=O)c1ccccc1Nc1nc(Nc2ccc3c(c2)CCN(CCF)CC3)ncc1Cl | 170 to 174 °C
CC(C)(C)c1cc(NC(=O)Nc2cccc(Cl)c2Cl)c(-c2ccccc2)s1 | 171 to 173 °C
CC(C)(C)C(COC(N)=O)(NC(=O)C(=O)c1c[nH]c2cc(Br)ccc12)c1c[nH]c2ccccc12 (stereo not given) | 145 °C
Cc1c(CC(c2ccccc2)c2ccccc2)ncn1C(c1ccccc1)(c1ccccc1)c1ccccc1 | 205 to 206 °C
CC(C)(C)OC(=O)NC1CCN(CCn2c(=O)ccc3ccc(C#N)cc32)CC1 | 202 °C
COc1ccc2c(c1)CCC(CN1CCC3(CC1)C(=O)NCN3c1ccccc1)=C2 | 182 to 193 °C
O=C1Nc2ccccc2C1=Cc1ccccc1 | 177 to 179 °C
CC(C)(C)c1cc(-c2nn(Cc3cccs3)c3ncccc23)cc(C(C)(C)C)c1O | 138 to 141 °C
NS(=O)(=O)c1cccc(-c2noc(-c3cnc4ccc(-c5ccc(C(F)(F)F)cc5)cn34)n2)c1 | 288 °C
CCCc1c(OCCCCCCc2ccc3cc(OC)c(OC)cc3c2)ccc(C(=O)O)c1O | 102 to 104 °C
CC(=O)Cc1nc(/C=C/c2cccc(Cl)c2F)no1 | 75 to 77 °C
CCOC(=O)c1cn(C2CC2)c2cc(F)c(F)cc2c1=O | 189 to 191 °C
CN(C)S(=O)(=O)c1ccc(Cl)c(-c2csc(=Nc3ccc(O)cc3)n2C)c1 | 221 to 224 °C
C[C@@H](Nc1ncnc2cc(OCC3CC3)c([N+](=O)[O-])cc12)c1ccccc1 | 155 °C
CC(c1ccc(Cl)cc1)N1Cc2sc3ncn(CCN4CCN(c5cccc6ccccc56)CC4)c(=O)c3c2C1 (stereo not given) | 149 °C

Structure (SMILES) | melting point
CC(C)c1ncc(CN2C(=O)C3(COc4cc5c(cc43)OCO5)c3cccc(C(F)(F)F)c32)s1 (stereo not given) | 101 to 103 °C
CCCCCN(Cc1ccc(-c2ccccc2S(=O)(=O)NC(C)(C)C)cc1)C(=O)Cl | 125 to 126 °C
CCCCCCCCN(c1c([O-])[c+](N(CCCCCCCC)C2CC(C)(C)NC(C)(C)C2)[c+]1[O-])C1CC(C)(C)NC(C)(C)C1 | 171 to 175 °C
CC(C)(C)OC(=O)N[C@@H](CCl)[C@H](O)CCl | 142 to 145 °C
C=CCNC(=O)ON=C1SCOC1C (stereo not given) | 66 to 67.5 °C
COc1cc(Nc2cc(-c3ccccc3)on2)ccc1-c1cnco1 | 173 to 175 °C
CC1CN(c2ccc(Cl)c(Cl)c2)N=C1NC=O (stereo not given) | 150 to 152 °C
c1ccc(COc2ccc3[nH]cc(Cc4cccnc4)c3c2)cc1 | 148 °C
CON(C)C(=O)COc1nnc(-c2ccc3c(c2)CCO3)o1 | 139 to 140 °C
Cc1cc(S(C)(=O)=O)c(S(C)(=O)=O)cc1C(=O)O | 234 to 235 °C
COC(=O)C(C)(C)CCCOc1cc(C)c([N+](=O)[O-])cc1C | 73 to 75 °C
FC(F)(F)c1cc(Nc2nc3ccccc3o2)ccc1Br | 211 to 212 °C
CC(C)(O)Cn1c(CO)nc2c(N)nc3cccnc3c21 | 235 to 237 °C
CCNC(=O)[C@H]1N(C(=O)[C@@H](O)[C@H](Cc2ccccc2)NC(=O)c2cc(C)cc(O)c2C)CC(F)(F)C1(C)C | 208 to 214 °C
Cc1cc(SCc2cccc3[nH]c(-c4ccc(C(F)(F)F)cc4)cc23)ccc1OCC(=O)O | 85 to 88 °C
Cc1cnc2c(NC(=O)c3c(Cl)cccc3Cl)cccc2c1N1CCNC1=O | > 250 °C
CCCc1c(OCCCOc2ccc(-c3csc(=S)[nH]3)c(OC)c2CCC)ccc2c1OC(C(=O)O)CC2 (stereo not given) | 149 to 151 °C
O=C(c1ccc(Cl)cc1)C1(Oc2ccc(Cl)cc2)CC1 | 69 to 71 °C
CS(=O)(=O)c1cccc(-c2ccccc2N)c1 | 114 to 115 °C
CCCCCCOc1cccc(C[C@H](NC(C)=O)[C@H](O)CNCc2cccc(CC)c2)c1 | 102 to 105 °C
Cc1ccc(C)c(OCCCC(C)(C)C(=O)Nc2cccc(C3=NCCCO3)c2)c1 | 114 to 115 °C
COc1ccc(-c2nc3nccnc3[nH]2)c(N(C)C)c1 | 279 to 280 °C
CCCc1ccc(C2c3c(C)cc(C)c(C)c3OC2(C)C)cc1 (stereo not given) | 69 to 70 °C
COc1ccc(-n2cc(C(F)(F)F)nc2-c2ccc(OC)nc2)cc1 | 90 to 92 °C
Cc1ccc(S(=O)(=O)NC[C@H](C)N)cc1 | 82 to 86 °C

Structure (SMILES) | melting point
Cc1ccc(-c2ccc3c(c2)C=C(C(=O)Nc2ccc(CN(C)C4CCOCC4)cc2)CCN3C)cc1 | 178 to 181 °C
CCNc1c([N+](=O)[O-])cc(C(C)(C)C)cc1[N+](=O)[O-] | 70 to 73 °C
Oc1ccccc1-c1cc(-c2ccc(F)c(F)c2)cc(-c2ccc(Cl)cc2)n1 | 146 to 148 °C
Cc1ccc(S(=O)(=O)NC(=O)Nc2ccc(Cl)cc2)cc1 | 174 to 176 °C
CN1CCCC1=NC(=O)Nc1c(Cl)cc(Cl)cc1Cl | 160 to 162 °C
CCCOC(=O)c1cncn1C(C)c1ccccc1 (stereo not given) | 156 to 157 °C
O=C(O)Cc1ccc(OCCCc2cc(-c3ccc(C(F)(F)F)cc3)no2)cc1 | 127 to 128 °C
CCOc1nc(Cl)nc2cscc12 | 136 to 140 °C
COCc1nccc(SCCCSc2ccc3ncc([N+](=O)[O-])n3n2)c1C | 107 to 110 °C
CC(=O)NC12CC1CN(c1nc3c(cc1F)c(=O)c(C(=O)O)cn3C1CC1)C2 (stereo not given) | 275 °C
C[C@](O)(COc1ccc(F)cc1)C(=O)Nc1ccc(C#N)c(C(F)(F)F)c1 | 139 to 140 °C
CC(c1ccc(O)cc1)C(CS)C(=O)NC(Cc1ccc(O)cc1)C(=O)O (stereo not given) | 115 °C
COC(=O)c1ccc(F)c2c1C=CCO2 | 73.5 to 74.5 °C
COc1ccc2c(c1)C(NC(=NC#N)SC)CCC2 (stereo not given) | 131 to 132 °C
CCOP(=O)(OCC)c1ccc(/C=C/c2ccc3c(c2)C(C)(C)CCC3(C)C)cc1 | 83 to 84 °C
CCNc1ccc(Cl)cc1[N+](=O)[O-] | 90 to 91 °C
COc1cc(C)nc2ccc(NC(=O)C=Cc3ccccc3Cl)cc12 | 228 to 229 °C
CC(C)c1cccc(F)c1NC(=S)NN | 122 to 124 °C
COc1cccc2c1CN(c1c(F)cc3c(=O)c(C(=O)O)cn(-c4ccc(F)cc4)c3c1F)C2 | 278 to 284 °C
N#CCc1cn(Cc2ccc(OCc3ccccc3)cc2)nc1-c1ccc(F)cc1 | 86 to 87 °C
CCCc1c(Br)c2ccc(C(N)=O)cc2n1Cc1ccccc1Br | 122 to 125 °C
CN(C)c1nn(-c2cc(F)c(C#N)cc2F)c(=O)n1C(F)F | 188 to 190 °C
O=C(O)C(=O)c1cc(F)ccc1NC(=O)c1ccc(-c2ccccc2)cc1 | 204 to 206 °C
CCCO/N=C(\C(=O)OC)c1csc(NC(=O)CCl)n1 | 86 to 87 °C
CC(=O)N1CCc2cc(Cl)ccc21 | 115 to 116 °C
